Test results from the supplement of paper PMC10307832.

What was measured:
Assay in all cases: relative viability (nuclei count vs DMSO), 5 days (fraction); higher = more cells survive
Serdemetan + Bortezomib = compound: c1ccc2c(CCNc3ccc(Nc4ccncc4)cc3)c[nH]c2c1 [Serdemetan] + CC(C)C[C@H](NC(=O)[C@H](Cc1ccccc1)NC(=O)c1cnccn1)B(O)O [Bortezomib] (partner 0.002 µM)
Outline: (§1)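 Relative viability equals treated-well nuclei counts divided by vehicle-well nuclei counts. Counts came from 4× images of lung cancer cell lines grown in 1536-well plates for 5 days after pin-tool dosing on the day after seeding. Dosing used one drug alone or a fixed anchor-drug dose plus five library-drug doses (not always all listed) in √10 steps, and values are medians of duplicate plates.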

Serdemetan + Trametinib = compound: c1ccc2c(CCNc3ccc(Nc4ccncc4)cc3)c[nH]c2c1 [Serdemetan] + CC(=O)Nc1cccc(-n2c(=O)n(C3CC3)c(=O)c3c(Nc4ccc(I)cc4F)n(C)c(=O)c(C)c32)c1 [Trametinib] (partner 0.02 µM)
Outline: as §1

Selisistat + Crizotinib = compound: C1CC(C2=C(C1)C3=C(N2)C=CC(=C3)Cl)C(=O)N [Selisistat] + C[C@@H](Oc1cc(-c2cnn(C3CCNCC3)c2)cnc1N)c1c(Cl)ccc(F)c1Cl [Crizotinib] (partner 1 µM)
Outline: as §1

Selisistat + Pictilisib = compound: C1CC(C2=C(C1)C3=C(N2)C=CC(=C3)Cl)C(=O)N [Selisistat] + CS(=O)(=O)N1CCN(Cc2cc3nc(-c4cccc5[nH]ncc45)nc(N4CCOCC4)c3s2)CC1 [Pictilisib] (partner 1 µM)
Outline: as §1

UMC-11
relative viability (Serdemetan + Bortezomib; first compound 0.04 µM): 0.614 | relative viability (Serdemetan + Bortezomib; first compound 0.1265 µM): 0.666 | relative viability (Serdemetan + Bortezomib; first compound 0.4 µM): 0.668 | relative viability (Serdemetan + Bortezomib; first compound 1.265 µM): 0.53 | relative viability (Serdemetan + Bortezomib; first compound 4 µM): 0.839 | relative viability (Serdemetan + Trametinib; first compound 0.04 µM): 0.703 | relative viability (Serdemetan + Trametinib; first compound 0.1265 µM): 0.672 | relative viability (Serdemetan + Trametinib; first compound 0.4 µM): 0.619 | relative viability (Serdemetan + Trametinib; first compound 1.265 µM): 0.388 | relative viability (Serdemetan + Trametinib; first compound 4 µM): 0.656 | relative viability (Selisistat + Crizotinib; first compound 0.4 µM): 0.812 | relative viability (Selisistat + Crizotinib; first compound 1.265 µM): 0.653 | relative viability (Selisistat + Crizotinib; first compound 4 µM): 0.683 | relative viability (Selisistat + Crizotinib; first compound 12.65 µM): 0.69 | relative viability (Selisistat + Crizotinib; first compound 40 µM): 0.577 | relative viability (Selisistat + Pictilisib; first compound 0.4 µM): 0.793 | relative viability (Selisistat + Pictilisib; first compound 1.265 µM): 0.784 | relative viability (Selisistat + Pictilisib; first compound 4 µM): 0.618 | relative viability (Selisistat + Pictilisib; first compound 12.65 µM): 0.742 | relative viability (Selisistat + Pictilisib; first compound 40 µM): 0.809
